Where two headings read alike, the source gives them in different places. No end group written: not given here.
What was measured:
B. cereus = format: cell-based; conditions: 24 h
Procedure: (§1) Luria-Bertani broth (LB) and Sabouraud Dextrose broth (SB) (Biocorp, Poland) were used for cultivation of bacteria and fungi strains, respectively. Antimicrobial activity of peptides was analyzed through determination of MIC (minimal inhibitory concentration) parameter according to the standard microdilution technique performed on 96-well plates. Mueller-Hinton broth (MHB) was used as the working medium for all bacterial strains, while in case of fungi it was additionally supplemented with 2% glucose.
(§2) Briefly, inoculum was prepared from freshly grown cultures of microorganisms being at their exponential phase of growth. Each well of 96-well plates containing 100 μL of serially diluted peptides in PBS (phosphate buffer saline) at concentration ranging from 2 to 250 μg/mL were inoculated with 100 μL of approximately 10^5 CFU/mL of bacterial suspension or about 2.5 x 10^3 CFU/mL of fungi suspended in a double concentrated Mueller-Hinton broth (supplemented with 2% glucose for Candida spps.). Then plates were incubated overnight at 37°C and absorbance was read at 590 nm after 24 h. Cultures without peptide were treated as positive control, while uninoculated Mueller-Hinton broth was defined as negative control. All measurements were run at least in triplicate.
(§3) All peptides were screened against the wide range of microorganisms, including Gram-negative, Gram-positive bacteria and fungi from Candida species (Table 2). Broth microdilution method for MIC determination was used as a standard procedure. All assays were performed on liquid Mueller-Hinton broth, which was additionally supplemented with 2% glucose when fungicidal activity towards Candida spps. was analyzed.

B. subtilis = format: cell-based; conditions: 24 h
Procedure: as §1, §2, §3

[1] = tested on: Candida albicans (CCM 8186); format: cell-based; conditions: broth microdilution, Mueller-Hinton broth + 2% glucose, about 2.5 x 10^3 CFU/mL, 37°C, 24 h, absorbance 590 nm, peptide 2 to 250 μg/mL, at least triplicate
Description: (§4) Escherichia coli (PCM 2057), Staphylococcus aureus (PCM 2054), Staphylococcus epidermidis (PCM 2118), Pseudomonas aeruginosa (PCM 499) were obtained from Polish Collection of Microorganisms. Fungi strains Candida albicans (CCM 8186), Candida glabrata (CCM 8270), Candida parapsilosis (CCM 8260), Candida krusei (CCM 8271), Candida tropicalis (CCM 8264) were acquired from Czech Collection of Microorganisms.
as §1, §2, §3

[2] = tested on: Candida glabrata (CCM 8270); format: cell-based; conditions: broth microdilution, Mueller-Hinton broth + 2% glucose, about 2.5 x 10^3 CFU/mL, 37°C, 24 h, absorbance 590 nm, at least triplicate
Description: as §4, §1, §2, §3

[3] = tested on: Candida krusei (CCM 8271); format: cell-based; conditions: broth microdilution, Mueller-Hinton broth + 2% glucose, about 2.5 x 10^3 CFU/mL, 37°C, 24 h, absorbance 590 nm, at least triplicate
Description: as §4, §1, §2, §3

[4] = tested on: Candida parapsilosis (CCM 8260); format: cell-based; conditions: broth microdilution, Mueller-Hinton broth + 2% glucose, about 2.5 x 10^3 CFU/mL, 37°C, 24 h, absorbance 590 nm, at least triplicate
Description: as §4, §1, §2, §3

[5] = tested on: Candida tropicalis (CCM 8264); format: cell-based; conditions: broth microdilution, Mueller-Hinton broth + 2% glucose, about 2.5 x 10^3 CFU/mL, 37°C, 24 h, absorbance 590 nm, at least triplicate
Description: as §4, §1, §2, §3

[6] = tested on: Escherichia coli (PCM 2057); format: cell-based
Description: as §4, §1, §2, §3

[7] = tested on: Pseudomonas aeruginosa (PCM 499); format: cell-based
Description: as §4, §1, §2, §3

[8] = tested on: Staphylococcus aureus (PCM 2054); format: cell-based
Description: as §4, §1, §2, §3

[9] = tested on: Staphylococcus epidermidis (PCM 2118); format: cell-based
Description: as §4, §1, §2, §3

[10] = Circular dichroism, alpha-helical content; format: physicochemical; conditions: CD, mean residue ellipticity at 222 nm (Eq 1), peptide 0.4 mg/ml in 30 mM SDS, room temperature
Procedure: Circullar dichroism spectra of analyzed compounds were recorded on a Jasco J-815 spectropolarimeter using a quartz cell of 1 mm path length between 195–260 nm at room temperature. Peptides at concentration of 0.4 mg/ml were dissolved in water or 30 mM SDS solution. SDS micelle system was used as the simplified model of negatively charged lipid membrane. On the basis of the obtained results the alpha-helical content was determined from the mean residue ellipticities at 222 nm according to Eq 1: %Helix=([θ]obs/([θ]helixx(1−2.57/l))x100, (1) where [θ] obs is the experimentally observed mean-residue ellipticity at 222 nm, [θ]helix is the theoretical ellipticity of peptide of infinite length with a 100% helix population, taken as -39 500 deg·cm^2/dmol, and l is the number of peptide bonds.
Circular dichroism method was applied to obtain a basic information about the secondary structure of the synthesized compounds (with the exception of CAR, CAR3, DAL, CTEN2) in two chemical environments, water and 30 mM SDS. As expected, all the tested compounds in water adopted a random-coil structure, while in the presence of 30 mM SDS most of them formed α-helices with characteristic negative minima around 208 and 220 nm. […] The examples of CD spectra for selected peptides could be seen in supporting information (Figure A in S1 File). On the basis of the experimentally obtained values of the mean residue ellipticities of peptides at 222 nm their alpha-helical content was calculated according to the Eq 1 (Table 1).

[11] = tested on: immortalized human HaCaT keratinocytes; assay: Cell proliferation assay (MTT); format: cell-based; conditions: 72 h, serum-free DMEM; for Effect on HaCaT cell viability/proliferation (MTT), in words: whole range 1–50 μg/mL, vs. control without peptide, triplicate; for Effect on HaCaT proliferation (MTT), in words: lower concentrations, 1 or 10 μg/mL
Procedure: In our study two kind of cells were used: immortalized human HaCaT keratinocytes (DKFZ Heidelberg, Germany) and primary dermal fibroblasts obtained from 3 healthy donors. Both types of the used cell lines were grown in Dulbecco's modified Eagle's medium (DMEM) (Sigma–Aldrich, Germany), that contained […] of glucose, […] of L-glutamine, sodium pyruvate and sodium bicarbonate. Additionally, medium was supplemented with 10% of FCS (fetal calf serum, Sigma-Aldrich, Germany), 100 U/mL of penicillin and 100 μg/mL streptomycin (Sigma-Aldrich, Germany). The cells were grown in culture dishes (BD, USA) under standard conditions in a humidified atmosphere with 5% CO2 at 37°C and medium was changed every 2 days.
The fibroblasts and keratinocytes were seeded at density of 4500 and 6000 cells per well, respectively, into 96-well plates suspended in a medium supplemented with 10% of FCS. After 24 h the media were exchanged with serum- and antibiotic- free DMEM and tested peptides dissolved in PBS were added yielding final concentration ranging from 1 to 50 μg/mL. Cells were incubated for the next 24 hours, when the medium was exchanged again and fresh portion of peptides (used at the same concentrations as previously) was added. Incubation was continued for the next 48 hours (the overall time of cell exposition to peptide was 72 h). At the end of the experiment cells were treated with 20 μL of MTT (5 mg/mL in PBS). After 3 h at 37°C under 5% CO2 medium was discarded and replaced by 6mM HCl in isopropanol. After 15 min when the purple crystals of formazan were fully solubilized, absorbance was read at 570 nm with a plate reader. The optical density reflects the level of cell viability as MTT is converted in purple formazan product only in the presence of viable mitochondria of the living cells.
Fig 1 Pro-proliferative activity of the tested peptides towards human keratinocytes (A) and fibroblasts (B). Cells were incubated for 72 hours in serum-free DMEM medium in the presence of peptides applied at concentrations of 1,10, 25 and 50 μg/mL, respectively. The data represents results of MTT assay expressed as the percentage of the cell viability in comparison to their control sample (cells incubated in serum-free DMEM without tested peptides), additional positive control corresponds to the cells incubated in the presence of 10% FCS. All experiments were performed independently in triplicate. *P < 0.05, **P < 0.01, ***P < 0.001 vs. control.
In order to evaluate a long-term effect of peptides, experiments were carried out for 72 hours. Before addition of the tested compounds, the cell medium was exchanged for the fresh one not containing any serum or antibiotic.

[12] = broth microdilution, Mueller-Hinton broth, approximately 10^5 CFU/mL, 37°C, absorbance 590 nm, at least triplicate
[13] = broth microdilution, Mueller-Hinton broth, approximately 10^5 CFU/mL, 37°C, 24 h, absorbance 590 nm, at least triplicate

Substance | MIC B. cereus (B. cereus; [12]) [µg/mL] | MIC B. subtilis (B. subtilis; [12]) [µg/mL] | MIC C. albicans [1] [µg/mL] | MIC C.glabrata [2] [µg/mL] | MIC C.krusei [3] [µg/mL] | MIC C. parapsilosis [4] [µg/mL] | MIC C.tropicalis [5] [µg/mL] | MIC E.coli [6, 13] [µg/mL] | MIC P. aeruginosa [7, 13] [µg/mL] | MIC S.aureus [8, 13] [µg/mL] | MIC S. epidermidis [9, 13] [µg/mL] | α-helicity [10] [%] | Effect on HaCaT cell viability/proliferation (MTT), in words [11] | MIC B. cereus (B. cereus) [µg/mL] | MIC B. subtilis (B. subtilis) [µg/mL] | MIC E.coli ([6]; PCM 2057, 24 h) [µg/mL] | MIC P. aeruginosa ([7]; PCM 499, 24 h) [µg/mL] | MIC S.aureus ([8]; PCM 2054, 24 h) [µg/mL] | MIC S. epidermidis ([9]; PCM 2118, 24 h) [µg/mL] | Effect on HaCaT proliferation (MTT), in words [11]
EGLEPG-PEG-IKKILSKIKKLLK-NH2 [CTEN2-PEG-LK6, conjugate of CTEN2 and LK6 joined by PEG-linker] | >125 | 7.8 | 125 | >125 | 15.6 | 125 | 7.8 | >125 | >125 | >125 | 7.8 | 20 | – | – | – | – | – | – | – | –
IKKILSKIKKLL-PEG-YAGFLR [DK5-PEG-DAL, conjugate of DK5 and dalargin joined by PEG-linker (8-amino-3,6-dioxaoctanoic acid)] | >125 | 7.8 | 100 | >125 | 7.8 | 2.0 | 7.8 | 7.8 | >125 | >125 | 7.8 | 20 | negative dose-response relationship | – | – | – | – | – | – | –
IKKILSKIKKLLK-NH2 [LK6, reference compound] | – | – | – | – | – | – | – | – | – | – | – | – | – | 50 | 7.8 | >125 | 25 | 100 | 7.8 | –
KKVVFWVKFK-NH2 [KSLW, reference compound] | – | – | – | – | – | – | – | – | – | – | – | – | – | 50 | 7.8 | 7.8 | 25 | 25 | 7.8 | –
YAGFLR [DAL, dalargin, synthetic Leu-enkephalin analogue, reference compound] | – | – | – | – | – | – | – | – | – | – | – | – | non-toxic | – | – | – | – | – | – | –
ΒAHβAHβAH-PEG-IKKILSKIKKLL-NH2 [CAR3-PEG-DK5, conjugate of CAR3 and DK5 joined by PEG-linker] | >125 | 15.6 | 100 | 125 | 7.8 | 2.0 | 7.8 | >125 | 50 | >125 | 7.8 | 27 | – | – | – | – | – | – | – | induced cell proliferation
βAH-PEG-IKKILSKIKKLL-NH2 [CAR-PEG-DK5, conjugate of carnosine and DK5 joined by PEG-linker] | 100 | 3.9 | 15.6 | 62.5 | 3.9 | 31.3 | <2 | 100 | 50 | 125 | 3.9 | 41 | – | – | – | – | – | – | – | induced cell proliferation
